Consider one compound from patent publication US20240382556A1, “METHODS AND COMPOSITIONS FOR THE TREATMENT OF ALCOHOL DEPENDENCE” (Duke University, priority 2023, published 2024).

For data set [1], the system named is preclinical rodent models. Conditions: previously shown; cited from earlier work.
In the next data set the test system is Adult male C57/B16J mice. In words: Drinking in the Dark (DID) mouse model of binge drinking behavior. Format: in vivo. As to the method: To measure binge drinking behavior, experiments were conducted that used the Drinking in the Dark (DID) model as previously published (see, Thiele T E, Crabbe J C, Boehm S L, 2nd (2014): “Drinking in the Dark” (DID): a simple mouse model of binge-like alcohol intake. Curr Protoc Neurosci. 68: 9 49 41-49 49 12). Adult male C57/B16J mice on reverse light-dark cycle had water replaced with alcohol three hours into the dark cycle. On days 1-3 of each week (Mon-Wed), mice received 20% alcohol for 2 hrs and on day 4 (Thur) received for 4 hours.
Mice were treated with Rapastinel at dose of 30 mg/kg or saline via intraperitoneal injection (i.p.) 30 minutes prior to alcohol exposure on days 1-4 of cycle either during first cycle of DID or after first undergoing DID for 5 weeks prior to treatment on week 6 (see, FIG. 1).

A further data set relates to animal models. Conditions: unlike ketamine, Moskal et al. 2017; cited from earlier work.

Structures are written as SMILES. Residues, ends and D or L forms follow the SMILES beside them.

Regarding `C[C@@H](O)[C@H](N)C(=O)N1CCC[C@H]1C(=O)N1CCC[C@H]1C(=O)N[C@H](C(N)=O)[C@@H](C)O` [Rapastinel, L-threonyl-L-prolyl-L-prolyl-L-threoninamide] (H-TPPT-NH2), the cravings for opiates entry in data set [1] is “effective in reducing cravings for opiates”. Besides, the “alcohol consumption (daily and total) compared to saline control” value in the data set on Adult male C57/B16J mice (alcohol naïve mice, 1 cycle of DID, daily i.p. injection of 30 mg/kg prior to presentation of alcohol) is reported as “no effect”. Besides, the “Total average weekly alcohol consumption, week 6 with treatment in comparison to weeks 1-5” value in the data set with Adult male C57/B16J mice (mice after 5 weeks of DID, 30 mg/kg i.p. 30 minutes prior to alcohol on days 1-4 of week 6, with and without removal of outliers (>90%)) is on record as “reduced alcohol consumption”. In addition, the “negative side effects during treatment” value with animal models was “has not been shown to produce any negative side effects”.
